The values that follow are results of earlier work, collected in US20250120985A1, “METHOD OF TREATING DIABETIC MACULAR EDEMA” (Oculis Operations Sàrl, priority 2023, published 2025).

Converted amounts (≈) assume the structure as drawn.

The conditions of this series: 25° C.

As to `OC[C@H]1O[C@@H]2O[C@H]3[C@H](O)[C@@H](O)[C@@H](O[C@H]4[C@H](O)[C@@H](O)[C@@H](O[C@H]5[C@H](O)[C@@H](O)[C@@H](O[C@H]6[C@H](O)[C@@H](O)[C@@H](O[C@H]7[C@H](O)[C@@H](O)[C@@H](O[C@H]8[C@H](O)[C@@H](O)[C@@H](O[C@H]9[C@H](O)[C@@H](O)[C@@H](O[C@H]1[C@H](O)[C@H]2O)O[C@@H]9CO)O[C@@H]8CO)O[C@@H]7CO)O[C@@H]6CO)O[C@@H]5CO)O[C@@H]4CO)O[C@@H]3CO` [γ-cyclodextrin], the “solubility in pure water” value was 249.2 ± 0.2 mg/mL (≈ 192 mM).

In the case of `OC[C@H]1O[C@@H]2O[C@H]3[C@H](O)[C@@H](O)[C@@H](O[C@H]4[C@H](O)[C@@H](O)[C@@H](O[C@H]5[C@H](O)[C@@H](O)[C@@H](O[C@H]6[C@H](O)[C@@H](O)[C@@H](O[C@H]7[C@H](O)[C@@H](O)[C@@H](O[C@H]1[C@H](O)[C@H]2O)O[C@@H]7CO)O[C@@H]6CO)O[C@@H]5CO)O[C@@H]4CO)O[C@@H]3CO` [α-cyclodextrin], the “solubility in pure water” value is 129.5 ± 0.7 mg/mL (≈ 133 mM).
